Source: the NIST ThermoML archive (doi:10.1021/acs.jced.7b00769)

Assay: xn = mol fraction of the nth substance listed
Details: Gas, isochoric method

FC(F)(F)/C=C/Cl [(E)-1-chloro-3,3,3-trifluoroprop-1-ene] + CC(C)C
Details	specific volume [m3/kg]
303.15 K, 113.3 kPa, x2 = 0.125	0.174
303.15 K, 186.5 kPa, x2 = 0.564	0.1429
308.15 K, 115.4 kPa, x2 = 0.125	0.1741
308.15 K, 190.1 kPa, x2 = 0.564	0.1429
313.15 K, 117.5 kPa, x2 = 0.125	0.1741
313.15 K, 193.7 kPa, x2 = 0.564	0.143
313.15 K, 197.4 kPa, x2 = 0.453	0.1261
318.15 K, 119.6 kPa, x2 = 0.125	0.1742
318.15 K, 197.5 kPa, x2 = 0.564	0.143
318.15 K, 200.9 kPa, x2 = 0.453	0.1262
318.15 K, 340.9 kPa, x2 = 0.746	0.0926
323.15 K, 121.8 kPa, x2 = 0.125	0.1742
323.15 K, 200.9 kPa, x2 = 0.564	0.143
323.15 K, 204.5 kPa, x2 = 0.453	0.1262
323.15 K, 347.6 kPa, x2 = 0.746	0.0926
328.15 K, 123.8 kPa, x2 = 0.125	0.1742
328.15 K, 204.3 kPa, x2 = 0.564	0.143
328.15 K, 208 kPa, x2 = 0.453	0.1262
328.15 K, 353.9 kPa, x2 = 0.746	0.0926
333.15 K, 125.8 kPa, x2 = 0.125	0.1743
333.15 K, 207.8 kPa, x2 = 0.564	0.1431
333.15 K, 211.4 kPa, x2 = 0.453	0.1262
333.15 K, 360.6 kPa, x2 = 0.746	0.0926
333.15 K, 648.1 kPa, x2 = 0.865	0.0535
338.15 K, 128.2 kPa, x2 = 0.125	0.1743
338.15 K, 211.1 kPa, x2 = 0.564	0.1431
338.15 K, 214.9 kPa, x2 = 0.453	0.1263
338.15 K, 366.9 kPa, x2 = 0.746	0.0926
338.15 K, 576.1 kPa, x2 = 0.644	0.0499
338.15 K, 661.4 kPa, x2 = 0.865	0.0535
343.15 K, 130.2 kPa, x2 = 0.125	0.1744
343.15 K, 214.6 kPa, x2 = 0.564	0.1431
343.15 K, 218.5 kPa, x2 = 0.453	0.1263
343.15 K, 373.2 kPa, x2 = 0.746	0.0927
343.15 K, 587.5 kPa, x2 = 0.644	0.0499
343.15 K, 674.5 kPa, x2 = 0.865	0.0536
348.15 K, 132.2 kPa, x2 = 0.125	0.1744
348.15 K, 218 kPa, x2 = 0.564	0.1432
348.15 K, 222 kPa, x2 = 0.453	0.1263
348.15 K, 379.5 kPa, x2 = 0.746	0.0927
348.15 K, 598.7 kPa, x2 = 0.644	0.0499
348.15 K, 687.5 kPa, x2 = 0.865	0.0536
353.15 K, 134.4 kPa, x2 = 0.125	0.1744
353.15 K, 221.4 kPa, x2 = 0.564	0.1432
353.15 K, 225.5 kPa, x2 = 0.453	0.1264
353.15 K, 385.8 kPa, x2 = 0.746	0.0927
353.15 K, 609.8 kPa, x2 = 0.644	0.0499
353.15 K, 700.5 kPa, x2 = 0.865	0.0536
358.15 K, 136.3 kPa, x2 = 0.125	0.1745
358.15 K, 224.6 kPa, x2 = 0.564	0.1432
358.15 K, 229 kPa, x2 = 0.453	0.1264
358.15 K, 391.8 kPa, x2 = 0.746	0.0927
358.15 K, 620.8 kPa, x2 = 0.644	0.0499
358.15 K, 713.3 kPa, x2 = 0.865	0.0536
363.15 K, 138.3 kPa, x2 = 0.125	0.1745
363.15 K, 228.1 kPa, x2 = 0.564	0.1433
363.15 K, 232.1 kPa, x2 = 0.453	0.1264
363.15 K, 398.1 kPa, x2 = 0.746	0.0927
363.15 K, 631.1 kPa, x2 = 0.644	0.05
363.15 K, 726.1 kPa, x2 = 0.865	0.0536
368.15 K, 140.4 kPa, x2 = 0.125	0.1745
368.15 K, 231.5 kPa, x2 = 0.564	0.1433
368.15 K, 235.6 kPa, x2 = 0.453	0.1264
368.15 K, 404.2 kPa, x2 = 0.746	0.0928
368.15 K, 642.6 kPa, x2 = 0.644	0.05
368.15 K, 738.7 kPa, x2 = 0.865	0.0536
373.15 K, 142.3 kPa, x2 = 0.125	0.1746
373.15 K, 234.8 kPa, x2 = 0.564	0.1433
373.15 K, 239.1 kPa, x2 = 0.453	0.1265
373.15 K, 410.7 kPa, x2 = 0.746	0.0928
373.15 K, 653.2 kPa, x2 = 0.644	0.05
373.15 K, 751.4 kPa, x2 = 0.865	0.0536
378.15 K, 144.4 kPa, x2 = 0.125	0.1746
378.15 K, 238.2 kPa, x2 = 0.564	0.1434
378.15 K, 242.6 kPa, x2 = 0.453	0.1265
378.15 K, 416.9 kPa, x2 = 0.746	0.0928
378.15 K, 664.1 kPa, x2 = 0.644	0.05
378.15 K, 763.9 kPa, x2 = 0.865	0.0536
383.15 K, 146.5 kPa, x2 = 0.125	0.1747
383.15 K, 241.7 kPa, x2 = 0.564	0.1434
383.15 K, 246.4 kPa, x2 = 0.453	0.1265
383.15 K, 423.2 kPa, x2 = 0.746	0.0928
383.15 K, 675 kPa, x2 = 0.644	0.05
383.15 K, 776.5 kPa, x2 = 0.865	0.0536

F/C=C\C(F)(F)F [(Z)-1,3,3,3-tetrafluoro-1-propene] + CC(C)C
Details	specific volume [m3/kg]
303.15 K, 145.9 kPa, x2 = 0.118	0.152
303.15 K, 155.7 kPa, x2 = 0.222	0.1514
303.15 K, 206.5 kPa, x2 = 0.427	0.127
303.15 K, 213.5 kPa, x2 = 0.51	0.1286
308.15 K, 148.7 kPa, x2 = 0.118	0.152
308.15 K, 158.6 kPa, x2 = 0.222	0.1514
308.15 K, 210.5 kPa, x2 = 0.427	0.127
308.15 K, 217.4 kPa, x2 = 0.51	0.1286
313.15 K, 151.4 kPa, x2 = 0.118	0.1521
313.15 K, 161.5 kPa, x2 = 0.222	0.1515
313.15 K, 214.4 kPa, x2 = 0.427	0.1271
313.15 K, 221.3 kPa, x2 = 0.51	0.1286
313.15 K, 398.1 kPa, x2 = 0.658	0.0757
318.15 K, 154 kPa, x2 = 0.118	0.1521
318.15 K, 164.3 kPa, x2 = 0.222	0.1515
318.15 K, 218.3 kPa, x2 = 0.427	0.1271
318.15 K, 225.2 kPa, x2 = 0.51	0.1287
318.15 K, 362.3 kPa, x2 = 0.725	0.0906
318.15 K, 406.6 kPa, x2 = 0.658	0.0758
323.15 K, 156.8 kPa, x2 = 0.118	0.1521
323.15 K, 167.2 kPa, x2 = 0.222	0.1515
323.15 K, 222.2 kPa, x2 = 0.427	0.1271
323.15 K, 229.2 kPa, x2 = 0.51	0.1287
323.15 K, 369.1 kPa, x2 = 0.725	0.0906
323.15 K, 414.5 kPa, x2 = 0.658	0.0758
328.15 K, 159.4 kPa, x2 = 0.118	0.1522
328.15 K, 170 kPa, x2 = 0.222	0.1516
328.15 K, 226 kPa, x2 = 0.427	0.1271
328.15 K, 233.1 kPa, x2 = 0.51	0.1287
328.15 K, 375.8 kPa, x2 = 0.725	0.0906
328.15 K, 423.1 kPa, x2 = 0.658	0.0758
333.15 K, 162 kPa, x2 = 0.118	0.1522
333.15 K, 172.7 kPa, x2 = 0.222	0.1516
333.15 K, 229.8 kPa, x2 = 0.427	0.1272
333.15 K, 237 kPa, x2 = 0.51	0.1287
333.15 K, 382.5 kPa, x2 = 0.725	0.0907
333.15 K, 430.7 kPa, x2 = 0.658	0.0758
338.15 K, 164.6 kPa, x2 = 0.118	0.1522
338.15 K, 175.4 kPa, x2 = 0.222	0.1516
338.15 K, 233.6 kPa, x2 = 0.427	0.1272
338.15 K, 240.9 kPa, x2 = 0.51	0.1288
338.15 K, 389.1 kPa, x2 = 0.725	0.0907
338.15 K, 438.4 kPa, x2 = 0.658	0.0758
343.15 K, 167.2 kPa, x2 = 0.118	0.1523
343.15 K, 178.2 kPa, x2 = 0.222	0.1517
343.15 K, 237.3 kPa, x2 = 0.427	0.1272
343.15 K, 244.7 kPa, x2 = 0.51	0.1288
343.15 K, 395.8 kPa, x2 = 0.725	0.0907
343.15 K, 446 kPa, x2 = 0.658	0.0758
348.15 K, 169.8 kPa, x2 = 0.118	0.1523
348.15 K, 180.8 kPa, x2 = 0.222	0.1517
348.15 K, 241.1 kPa, x2 = 0.427	0.1272
348.15 K, 248.6 kPa, x2 = 0.51	0.1288
348.15 K, 402.5 kPa, x2 = 0.725	0.0907
348.15 K, 453.6 kPa, x2 = 0.658	0.0759
353.15 K, 172.5 kPa, x2 = 0.118	0.1523
353.15 K, 183.7 kPa, x2 = 0.222	0.1517
353.15 K, 244.7 kPa, x2 = 0.427	0.1273
353.15 K, 252.4 kPa, x2 = 0.51	0.1288
353.15 K, 409.1 kPa, x2 = 0.725	0.0907
353.15 K, 461.2 kPa, x2 = 0.658	0.0759
358.15 K, 175.1 kPa, x2 = 0.118	0.1524
358.15 K, 186.5 kPa, x2 = 0.222	0.1518
358.15 K, 248.6 kPa, x2 = 0.427	0.1273
358.15 K, 256.3 kPa, x2 = 0.51	0.1289
358.15 K, 415.6 kPa, x2 = 0.725	0.0908
358.15 K, 468.5 kPa, x2 = 0.658	0.0759
363.15 K, 177.7 kPa, x2 = 0.118	0.1524
363.15 K, 189.4 kPa, x2 = 0.222	0.1518
363.15 K, 252.3 kPa, x2 = 0.427	0.1273
363.15 K, 260.1 kPa, x2 = 0.51	0.1289
363.15 K, 422.1 kPa, x2 = 0.725	0.0908
363.15 K, 476 kPa, x2 = 0.658	0.0759
368.15 K, 180.3 kPa, x2 = 0.118	0.1524
368.15 K, 192.1 kPa, x2 = 0.222	0.1518
368.15 K, 256 kPa, x2 = 0.427	0.1274
368.15 K, 263.9 kPa, x2 = 0.51	0.1289
368.15 K, 428.6 kPa, x2 = 0.725	0.0908
368.15 K, 483.4 kPa, x2 = 0.658	0.0759
373.15 K, 182.9 kPa, x2 = 0.118	0.1525
373.15 K, 194.9 kPa, x2 = 0.222	0.1519
373.15 K, 259.8 kPa, x2 = 0.427	0.1274
373.15 K, 267.8 kPa, x2 = 0.51	0.129
373.15 K, 435.2 kPa, x2 = 0.725	0.0908
373.15 K, 490.9 kPa, x2 = 0.658	0.0759
378.15 K, 185.5 kPa, x2 = 0.118	0.1525
378.15 K, 197.7 kPa, x2 = 0.222	0.1519
378.15 K, 263.6 kPa, x2 = 0.427	0.1274
378.15 K, 271.7 kPa, x2 = 0.51	0.129
378.15 K, 441.7 kPa, x2 = 0.725	0.0908
378.15 K, 498.2 kPa, x2 = 0.658	0.076
383.15 K, 188.1 kPa, x2 = 0.118	0.1525
383.15 K, 200.5 kPa, x2 = 0.222	0.1519
383.15 K, 267.4 kPa, x2 = 0.427	0.1274
383.15 K, 275.5 kPa, x2 = 0.51	0.129
383.15 K, 448.3 kPa, x2 = 0.725	0.0909
383.15 K, 505.8 kPa, x2 = 0.658	0.076
